Values quoted from earlier work in patent publication US9730899B2, “Controlled release pharmaceutical composition with resistance against the influence of ethanol employing a coating comprising neutral vinyl polymers and excipients” (Evonik Roehm GmbH, priority 2009, dated 2017).
Counter-ions that a name gives are not always drawn. Like-named read-outs stand apart in the source and are kept apart here.

Conditions: USP classification, between 15° C. and 25° C.

| SMILES | Solubility in ethanol | Solubility in water | Solubility in ethanol (listed as metoprolol) | Solubility in ethanol (HCl) | Solubility in ethanol (listed as diltiazem, HCl) | Solubility in ethanol (listed as naloxone) | Solubility in ethanol (listed as theophyllin) |
| --- | --- | --- | --- | --- | --- | --- | --- |
| COCCc1ccc(OCC(O)CNC(C)C)cc1 (centres unmarked) [Metoprolol succinate] | Sparingly soluble (more than 30 to 100) | Freely soluble (from 1 to 10) | sparingly soluble |  |  |  |  |
| COc1ccc([C@@H]2Sc3ccccc3N(CCN(C)C)C(=O)[C@@H]2OC(C)=O)cc1 [Diltiazem HCl] |  | Freely soluble (from 1 to 10) |  | Sparingly soluble (more than 30 to 100) | sparingly soluble |  |  |
| C=CCN1CC[C@]23c4c5ccc(O)c4O[C@H]2C(=O)CC[C@@]3(O)[C@H]1C5 [Naloxone] | Slightly soluble (more than 100 to 1000) | Soluble (more than 10 to 30) |  |  |  | slightly soluble |  |
| NC(=O)N1c2ccccc2C=Cc2ccccc21 [Carbamazepine] | Soluble (more than 10 to 30) | Practically insoluble (more than 10.000) |  |  |  |  |  |
| Cn1c(=O)c2[nH]cnc2n(C)c1=O [Theophylline] | Sparingly soluble (more than 30 to 100) | Slightly soluble (more than 100 to 1000) |  |  |  |  | sparingly soluble |
